One compound from PMC6199744, “Development of Chemical Proteomics for the Folateome and Analysis of the Kinetoplastid Folateome” (ACS Infectious Diseases, 2018) can be followed below.

Common to all, as to type: binding
Test [1] concerns the target T1, HeLa cell extract proteins (Homo sapiens, UniProt O14744).
T1 construct: endogenous in cells; host or cells: HeLa cell extract
As to conditions: protein PRMT5; HeLa.

The target of test [2] is T2, HeLa cell extract proteins (Homo sapiens, UniProt P06753).
T2 construct: endogenous in cells; host or cells: HeLa cell extract
T2 sequence (P06753 whole entry): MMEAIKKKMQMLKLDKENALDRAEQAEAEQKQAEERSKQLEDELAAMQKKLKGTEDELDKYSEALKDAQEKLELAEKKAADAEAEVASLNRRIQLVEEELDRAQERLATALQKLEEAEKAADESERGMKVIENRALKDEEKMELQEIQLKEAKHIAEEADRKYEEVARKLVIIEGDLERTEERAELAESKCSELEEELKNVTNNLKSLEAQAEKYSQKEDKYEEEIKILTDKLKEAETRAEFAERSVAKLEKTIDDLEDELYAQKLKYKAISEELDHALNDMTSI
The note with it: protein TPM3; HeLa.

Test [3] addresses T3, HeLa cell extract proteins (Homo sapiens, UniProt P12004).
T3 construct: endogenous in cells; host or cells: HeLa cell extract
The note with it: protein PCNA; HeLa.

Test [4] has as its target T4, HeLa cell extract proteins (Homo sapiens, UniProt P13073).
T4 construct: endogenous in cells; host or cells: HeLa cell extract
As to conditions: HeLa; protein COX4I1.

The target of test [5] is T5, HeLa cell extract proteins (Homo sapiens, UniProt P16278).
T5 construct: endogenous in cells; host or cells: HeLa cell extract
T5 sequence (P16278 29-677): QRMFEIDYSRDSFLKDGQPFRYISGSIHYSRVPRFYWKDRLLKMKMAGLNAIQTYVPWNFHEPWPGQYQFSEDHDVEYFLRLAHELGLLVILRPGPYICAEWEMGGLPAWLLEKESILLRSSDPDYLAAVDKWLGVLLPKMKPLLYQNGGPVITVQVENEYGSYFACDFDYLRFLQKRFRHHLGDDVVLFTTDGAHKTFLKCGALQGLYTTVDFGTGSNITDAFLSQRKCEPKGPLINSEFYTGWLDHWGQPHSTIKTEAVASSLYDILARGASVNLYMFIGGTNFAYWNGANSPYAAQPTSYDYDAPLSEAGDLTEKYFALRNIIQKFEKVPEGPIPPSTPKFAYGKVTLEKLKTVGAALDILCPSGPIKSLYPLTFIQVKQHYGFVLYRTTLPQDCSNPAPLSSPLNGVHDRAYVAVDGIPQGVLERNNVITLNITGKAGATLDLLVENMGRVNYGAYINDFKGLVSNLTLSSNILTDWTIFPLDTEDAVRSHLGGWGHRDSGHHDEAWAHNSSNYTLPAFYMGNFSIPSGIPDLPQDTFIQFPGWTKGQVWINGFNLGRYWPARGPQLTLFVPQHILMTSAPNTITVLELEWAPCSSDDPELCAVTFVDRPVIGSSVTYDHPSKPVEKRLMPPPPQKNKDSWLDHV
The note with it: captured protein GLB1; HeLa.

The target of test [6] is T6, HeLa cell extract proteins (Homo sapiens, UniProt P27348).
T6 construct: endogenous in cells; host or cells: HeLa cell extract
T6 sequence (P27348 1-245): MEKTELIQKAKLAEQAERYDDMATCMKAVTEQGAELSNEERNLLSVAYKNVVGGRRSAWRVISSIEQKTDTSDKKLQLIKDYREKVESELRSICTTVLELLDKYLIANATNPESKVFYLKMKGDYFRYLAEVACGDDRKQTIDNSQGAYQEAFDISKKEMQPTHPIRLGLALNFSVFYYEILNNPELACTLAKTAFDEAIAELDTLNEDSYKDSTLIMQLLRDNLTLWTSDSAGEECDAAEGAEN
As to conditions: protein YWHAQ; HeLa.

Test [7] has as its target T7, HeLa cell extract proteins (Homo sapiens, UniProt P29692).
T7 construct: endogenous in cells; host or cells: HeLa cell extract
T7 sequence (P29692 1-281): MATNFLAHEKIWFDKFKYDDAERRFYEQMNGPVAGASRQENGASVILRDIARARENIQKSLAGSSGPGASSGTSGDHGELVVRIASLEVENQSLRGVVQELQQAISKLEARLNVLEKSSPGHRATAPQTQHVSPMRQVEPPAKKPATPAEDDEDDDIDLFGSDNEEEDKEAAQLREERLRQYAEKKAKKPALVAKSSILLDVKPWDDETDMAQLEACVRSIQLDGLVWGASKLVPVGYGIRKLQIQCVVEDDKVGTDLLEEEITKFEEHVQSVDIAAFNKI
As to conditions: protein EEF1D; HeLa.

Test [8] concerns the target T8, HeLa cell extract proteins (Homo sapiens, UniProt P49368).
T8 construct: endogenous in cells; host or cells: HeLa cell extract
T8 sequence (P49368 1-545): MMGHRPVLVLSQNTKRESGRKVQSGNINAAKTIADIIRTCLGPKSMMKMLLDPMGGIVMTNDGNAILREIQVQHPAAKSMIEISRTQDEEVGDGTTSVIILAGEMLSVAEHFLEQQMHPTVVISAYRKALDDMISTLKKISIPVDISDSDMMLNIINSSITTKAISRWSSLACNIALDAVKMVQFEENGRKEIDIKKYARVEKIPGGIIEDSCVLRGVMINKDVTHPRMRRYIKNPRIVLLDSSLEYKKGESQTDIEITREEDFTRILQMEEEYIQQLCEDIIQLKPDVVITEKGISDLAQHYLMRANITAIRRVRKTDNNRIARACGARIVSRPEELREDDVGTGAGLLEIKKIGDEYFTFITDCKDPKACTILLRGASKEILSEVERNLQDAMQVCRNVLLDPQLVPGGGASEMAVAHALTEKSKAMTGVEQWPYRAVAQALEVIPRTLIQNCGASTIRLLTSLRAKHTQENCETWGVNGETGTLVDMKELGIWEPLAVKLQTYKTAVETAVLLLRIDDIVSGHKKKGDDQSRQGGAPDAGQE
As to conditions: protein CCT3; HeLa.

Test [9] deals with T9, HeLa cell extract proteins (Homo sapiens, UniProt P49773).
T9 construct: endogenous in cells; host or cells: HeLa cell extract
T9 sequence (P49773 whole entry): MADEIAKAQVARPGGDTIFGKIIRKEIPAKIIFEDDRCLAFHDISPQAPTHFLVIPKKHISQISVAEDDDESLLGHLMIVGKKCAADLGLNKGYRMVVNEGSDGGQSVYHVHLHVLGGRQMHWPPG
The note with it: HeLa; protein HINT1.

Test [10] has as its target T10, HeLa cell extract proteins (Homo sapiens, UniProt P63167).
T10 construct: endogenous in cells; host or cells: HeLa cell extract
The note with it: protein DYNLL1; HeLa.

Test [11] addresses T11, HeLa cell extract proteins (Homo sapiens, UniProt Q04837).
T11 construct: endogenous in cells; host or cells: HeLa cell extract
T11 sequence (Q04837 17-148): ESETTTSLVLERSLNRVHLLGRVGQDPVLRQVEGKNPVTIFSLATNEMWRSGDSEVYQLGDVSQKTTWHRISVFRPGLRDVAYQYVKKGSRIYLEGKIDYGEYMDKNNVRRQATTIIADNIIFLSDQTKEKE
As to conditions: HeLa; protein SSBP1.

For test [12], the target named is T12, HeLa cell extract proteins (Homo sapiens, UniProt Q13263).
T12 construct: endogenous in cells; host or cells: HeLa cell extract
T12 sequence (Q13263 whole entry): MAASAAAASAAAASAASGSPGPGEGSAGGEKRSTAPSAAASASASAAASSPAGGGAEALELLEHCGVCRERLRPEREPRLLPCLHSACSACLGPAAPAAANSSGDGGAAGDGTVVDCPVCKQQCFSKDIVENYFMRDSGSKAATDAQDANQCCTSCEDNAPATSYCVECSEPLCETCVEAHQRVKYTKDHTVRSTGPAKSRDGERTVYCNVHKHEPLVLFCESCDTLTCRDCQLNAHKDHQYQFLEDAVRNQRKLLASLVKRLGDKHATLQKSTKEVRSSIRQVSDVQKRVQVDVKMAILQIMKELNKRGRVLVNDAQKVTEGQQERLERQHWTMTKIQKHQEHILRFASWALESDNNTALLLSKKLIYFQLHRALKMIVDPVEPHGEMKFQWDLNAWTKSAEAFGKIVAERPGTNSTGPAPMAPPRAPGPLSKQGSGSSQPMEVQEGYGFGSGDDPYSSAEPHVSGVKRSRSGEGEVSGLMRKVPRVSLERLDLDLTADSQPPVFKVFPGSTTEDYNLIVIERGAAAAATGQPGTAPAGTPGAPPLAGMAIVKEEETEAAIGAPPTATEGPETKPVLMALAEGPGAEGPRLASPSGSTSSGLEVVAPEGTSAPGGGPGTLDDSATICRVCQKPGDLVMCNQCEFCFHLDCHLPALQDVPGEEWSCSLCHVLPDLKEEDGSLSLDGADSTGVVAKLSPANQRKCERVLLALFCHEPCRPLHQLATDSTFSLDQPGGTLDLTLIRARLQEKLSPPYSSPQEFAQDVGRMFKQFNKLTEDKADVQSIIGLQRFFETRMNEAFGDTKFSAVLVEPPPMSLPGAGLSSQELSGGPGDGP
The note with it: protein TRIM28; HeLa.

Test [13] concerns the target T13, HeLa cell extract proteins (Homo sapiens, UniProt Q99439).
T13 construct: endogenous in cells; host or cells: HeLa cell extract
T13 sequence (Q99439 1-309): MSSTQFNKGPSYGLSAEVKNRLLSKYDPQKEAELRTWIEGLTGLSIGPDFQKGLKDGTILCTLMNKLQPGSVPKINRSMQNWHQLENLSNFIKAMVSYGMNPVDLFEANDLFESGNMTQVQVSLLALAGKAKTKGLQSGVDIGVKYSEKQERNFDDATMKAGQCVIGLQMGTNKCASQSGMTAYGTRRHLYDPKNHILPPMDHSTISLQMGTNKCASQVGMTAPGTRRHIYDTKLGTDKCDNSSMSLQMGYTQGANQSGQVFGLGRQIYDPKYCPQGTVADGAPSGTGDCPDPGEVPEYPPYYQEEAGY
As to conditions: HeLa; protein CNN2.

SMILES strings stand for the structures.

T10 sequence (P63167 whole entry): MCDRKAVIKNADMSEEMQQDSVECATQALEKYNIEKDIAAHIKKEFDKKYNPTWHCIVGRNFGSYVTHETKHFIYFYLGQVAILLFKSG
T4 sequence (P13073 23-169): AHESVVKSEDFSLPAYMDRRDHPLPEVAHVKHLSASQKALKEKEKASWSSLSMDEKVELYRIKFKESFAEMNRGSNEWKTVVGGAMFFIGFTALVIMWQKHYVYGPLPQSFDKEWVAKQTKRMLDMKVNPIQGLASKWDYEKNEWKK
T3 sequence (P12004 whole entry): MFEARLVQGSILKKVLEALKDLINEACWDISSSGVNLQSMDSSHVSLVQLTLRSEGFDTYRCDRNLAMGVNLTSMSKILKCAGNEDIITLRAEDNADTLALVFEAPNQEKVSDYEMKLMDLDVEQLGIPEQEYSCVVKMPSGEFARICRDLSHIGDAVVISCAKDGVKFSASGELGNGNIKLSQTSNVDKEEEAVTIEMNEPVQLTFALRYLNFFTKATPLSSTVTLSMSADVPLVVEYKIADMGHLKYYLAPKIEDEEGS
T1 sequence (O14744 whole entry): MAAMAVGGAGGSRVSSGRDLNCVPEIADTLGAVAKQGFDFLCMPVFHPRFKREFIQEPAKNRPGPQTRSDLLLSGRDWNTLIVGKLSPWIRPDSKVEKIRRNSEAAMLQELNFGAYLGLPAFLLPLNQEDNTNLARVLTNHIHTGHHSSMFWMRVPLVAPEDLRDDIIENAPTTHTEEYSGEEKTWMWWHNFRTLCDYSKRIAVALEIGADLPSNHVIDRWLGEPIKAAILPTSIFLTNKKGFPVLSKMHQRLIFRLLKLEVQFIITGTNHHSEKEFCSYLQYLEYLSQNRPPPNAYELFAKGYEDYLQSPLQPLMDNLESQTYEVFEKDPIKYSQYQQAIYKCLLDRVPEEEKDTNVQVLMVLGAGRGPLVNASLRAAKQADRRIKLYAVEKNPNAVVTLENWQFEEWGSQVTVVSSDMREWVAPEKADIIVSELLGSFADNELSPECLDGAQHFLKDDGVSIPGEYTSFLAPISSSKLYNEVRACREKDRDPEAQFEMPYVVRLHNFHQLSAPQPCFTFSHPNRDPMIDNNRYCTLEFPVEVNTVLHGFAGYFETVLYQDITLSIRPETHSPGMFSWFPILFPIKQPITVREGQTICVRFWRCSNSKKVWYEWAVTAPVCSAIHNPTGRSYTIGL

For the compound `Nc1nc2cccc(-c3ccccc3)c2n1Cc1ccc(Cl)c(Cl)c1` [compound 3], the “fold changes relative to vehicle control” value in test [1] was determined as 0.85; in [2], 0.87; in test [3] it was 0.77; in [4] it was 1; in test [5] it was 0.99; in [6], 0.88. The “fold changes relative to vehicle control” value worked out at 1.1 in test [7]; 1.06 in test [8]; 1.17 in test [9]; 0.96 in test [10]; 1 in [11]; 1.02 in [12]. The “fold changes relative to vehicle control” value in test [13] was 1.07.
